In patent US20240317758A1 (Halia Therapeutics, Inc., priority 2021, published 2024):

Experiments:
[1] = molecular target: T1, full-length recombinant human NEK7 (Homo sapiens, UniProt Q8TDX7); experiment: NEK7 enzymatic assay; format: biochemical; conditions: recombinant human NEK7, casein substrate, radiolabelled ATP
T1 construct: full-length recombinant human NEK7; GST (N); purchased SignalChem NO9-10G; host or cells: Sf9 insect cells (baculovirus)
In short: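 Full-length GST-tagged human NEK7 from Sf9 cells (assay concentration 70 nM) was used with casein (assay concentration 20 μM) in Hepes pH 7.5 buffer, 1% DMSO, and compound (3-fold dilutions, 10 μM to 0.5 nM) was preincubated 20 min at room temperature. Radiolabelled ATP was added for 2 h, phosphorylation was read on P81 paper, and IC50 was fitted from % activity remaining versus vehicle.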

IL-1β release = IL-1β release assay (THP-1 cells, PMA, LPS, nigericin); format: cell-based; conditions: Homo sapiens, LPS 250 ng/mL, nigericin 20 μM, cleaved IL-1β in media
Experimental: Approximately 1.5 million THP-1 cells were plated in each well of a 6-well TC plate and incubated with 40 nM PMA in RPMI (10% FBS, 1% Penstrep) for 24 hours. The media was then removed and cells were rested in RPMI (10% FBS, 1% Penstrep) for 24 hours after which time the media was removed and cells were pre-treated for 2 hours with various concentrations of compounds of interest (typically serial 3-fold dilution in RPMI+5% FBS, concentrations ranging from 1 μM to 0.5 nM) in RPMI (5% FBS). The media was again removed and cells were incubated with 250 ng/mL LPS and compounds of interest (concentrations as above) in RMPI (5% FBS) for 2 hours. The media was removed for a last time and cells were incubated with 20 μM nigericin and compounds of interest (concentrations as above) in Opti-MEM for 30 minutes. Cell media was then collected and the amount of cleaved IL-1β was determined using a JESS instrument (Protein Simple) and standard protocols. Cleaved Il-1β antibody was obtained from Cell Signaling (catalogue #83186S) and was used at 1:20 dilution in antibody diluent 2. Protein Simple 1× anti-Rabbit HRP secondary antibody was used along with Protein Simple luminol and peroxide for chemiluminescent detection. Primary antibody incubation time was increased from 30 minutes to 60 minutes.

T1 sequence (Q8TDX7 whole entry): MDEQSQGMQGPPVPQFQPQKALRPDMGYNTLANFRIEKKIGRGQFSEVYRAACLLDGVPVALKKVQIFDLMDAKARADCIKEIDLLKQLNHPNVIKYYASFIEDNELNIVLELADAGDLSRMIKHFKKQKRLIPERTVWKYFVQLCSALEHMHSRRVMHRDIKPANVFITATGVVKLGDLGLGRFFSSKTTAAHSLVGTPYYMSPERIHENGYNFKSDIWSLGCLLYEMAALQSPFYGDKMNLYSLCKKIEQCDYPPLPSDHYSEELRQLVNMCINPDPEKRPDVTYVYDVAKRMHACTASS

For `CN1CCN(Cc2ccc(NC(=O)Nc3ccc(-c4cn(C5CC5)c5ncnc(N)c45)cc3F)c(C(F)(F)F)c2)CC1` [Example I-16, 1-(4-(4-amino-7-cyclopropyl-7H-pyrrolo[2,3-d]pyrimidin-5-yl)-2-fluorophenyl)-3-(4-((4-methylpiperazin-1-yl)methyl)-2-(trifluoromethyl)phenyl)urea], the IC50 [1] was over 2000 nM and the IC50 (IL-1β release) was over 1000 nM.
`Nc1ncnc2c1c(-c1ccc(NC(=O)Nc3ccc(CN4CCN(CCO)CC4)c(C(F)F)c3)c(F)c1)cn2C1CC1` [Example I-72, 1-(4-(4-amino-7-cyclopropyl-7H-pyrrolo[2,3-d]pyrimidin-5-yl)-2-fluorophenyl)-3-(3-(difluoromethyl)-4-((4-(2-hydroxyethyl)piperazin-1-yl)methyl)phenyl)urea] was tested, and the IC50 [1] was under 100 nM and the IC50 (IL-1β release) was 50 to 250 nM.
Compound `Nc1ncnc2c1c(-c1ccc(NC(=O)Nc3ccc(CN4CCN(CCS(=O)(=O)O)CC4)c(C(F)(F)F)c3)c(F)c1)cn2C1CC1` [Example I-100, 2-(4-(4-(3-(4-(4-amino-7-cyclopropyl-7H-pyrrolo[2,3-d]pyrimidin-5-yl)-2-fluorophenyl)ureido)-2-(trifluoromethyl)benzyl)piperazin-1-yl)ethane-1-sulfonic acid] has an IC50 [1] of under 100 nM and an IC50 (IL-1β release) of over 1000 nM.
Compound `CS(=O)(=O)CCN1CCN(Cc2ccc(NC(=O)Nc3ccc(-c4cn(C5CC5)c5ncnc(N)c45)cc3F)cc2C(F)(F)F)CC1` [Example I-99, 1-(4-(4-amino-7-cyclopropyl-7H-pyrrolo[2,3-d]pyrimidin-5-yl)-2-fluorophenyl)-3-(4-((4-(2-(methylsulfonyl)ethyl)piperazin-1-yl)methyl)-3-(trifluoromethyl)phenyl)urea] has an IC50 [1] of under 100 nM and an IC50 (IL-1β release) of 50 to 250 nM.
Work on `CC(=O)N1CCC(Oc2ccc(NC(=O)Nc3ccc(-c4cn(C5CC5)c5ncnc(N)c45)cc3F)cc2C(F)(F)F)CC1` [Example I-82, 1-(4-((1-acetylpiperidin-4-yl)oxy)-3-(trifluoromethyl)phenyl)-3-(4-(4-amino-7-cyclopropyl-7H-pyrrolo[2,3-d]pyrimidin-5-yl)-2-fluorophenyl)urea] yielded an IC50 [1] of 100 to 500 nM and an IC50 (IL-1β release) of 250 to 1000 nM.
`Nc1ncnc2c1c(-c1ccc(NC(=O)Nc3ccc(CN4CCNCC4)c(C(F)(F)F)c3)c(F)c1)cn2C1CC1` [Example I-79, 1-(4-(4-amino-7-cyclopropyl-7H-pyrrolo[2,3-d]pyrimidin-5-yl)-2-fluorophenyl)-3-(4-(piperazin-1-ylmethyl)-3-(trifluoromethyl)phenyl)urea] was tested, and the IC50 [1] was under 100 nM and the IC50 (IL-1β release) was 50 to 250 nM.
Work on `CN1CCN(Cc2ccc(NC(=O)Nc3ccc(-c4nn(C5CC5)c5ccnc(N)c45)cc3F)cc2C(F)(F)F)CC1` [Example I-31, 1-(4-(4-amino-1-cyclopropyl-1H-pyrazolo[4,3-c]pyridin-3-yl)-2-fluorophenyl)-3-(4-((4-methylpiperazin-1-yl)methyl)-3-(trifluoromethyl)phenyl)urea] yielded an IC50 [1] of under 100 nM and an IC50 (IL-1β release) of under 50 nM.
Compound `Nc1ncnc2c1c(-c1ccc(NC(=O)Nc3ccc(OC4CCN(C5COC5)CC4)c(C(F)(F)F)c3)c(F)c1)cn2C1CC1` [Example I-83, 1-(4-(4-amino-7-cyclopropyl-7H-pyrrolo[2,3-d]pyrimidin-5-yl)-2-fluorophenyl)-3-(4-((1-(oxetan-3-yl)piperidin-4-yl)oxy)-3-(trifluoromethyl)phenyl)urea] has an IC50 [1] of 100 to 500 nM and an IC50 (IL-1β release) of 50 to 250 nM.
`CC(C)N1CCN(Cc2ccc(NC(=O)Nc3ccc(-c4cn(C5CC5)c5ncnc(N)c45)cc3F)cc2C(F)(F)F)CC1` [Example I-63, 1-(4-(4-amino-7-cyclopropyl-7H-pyrrolo[2,3-d]pyrimidin-5-yl)-2-fluorophenyl)-3-(4-((4-isopropylpiperazin-1-yl)methyl)-3-(trifluoromethyl)phenyl)urea] showed an IC50 [1] of under 100 nM and an IC50 (IL-1β release) of under 50 nM.
